Experimental data from patent US20240382600A1, “BIFUNCTIONAL DEGRADERS COMPRISING A TEAD BINDER” (Novartis AG, priority 2021, published 2024).

Columns and labels:
[1] = target: TEAD1-GFP in HEK293A cells (Homo sapiens (Human), UniProt P28347); experiment: TEAD1 protein abundance flow cytometry assay in HEK293A; type: cell-based; details: HEK293A TEAD1-GFP-CHYSEL-mCherry sensor cells, 24 h, GFP signal by flow cytometry
How it was run: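 HEK293A stably expressing bicistronic TEAD1-GFP-CHYSEL-mCherry treated 24 h at 37° C with 10-point 3-fold series from 10 μM (0.1% DMSO), duplicate. Median GFP of 2,500 single cells by flow cytometry, normalized to parental HEK293A (0%) and DMSO (100%); DC50 from concentration-response curves.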

[2] = system: YAP-dependent transcription in NCI-H2052 Tet-On shYAP_2371 pLenti6 MCAT_Luc cells; experiment: YAP reporter gene activity assay (MCAT-Luc), NCI-H2052; type: cell-based; details: 24 hrs
[3] = system: YAP-dependent transcription in SF268-MCAT_Luc_dox-i-shYAPLevy (Clone 13) cells; experiment: YAP reporter gene activity assay (MCAT-Luc), SF268; type: cell-based; details: SF268 MCAT_Luc, 24 hrs
[4] = target: Avi-humanTEAD4^217-434 / Cy5 labeled humanYAP^60-100 (Homo sapiens (Human), UniProt Q15561); experiment: In-vitro biochemical TR-FRET assay (TEAD4/YAP); type: binding; details: 1 h at room temperature
[5] = system: MKN-45/Ubc-luc cells (unspecific inhibition of luciferase expression or activity); experiment: Reporter gene assay specificity control (Ubc-Luc), MKN-45; type: cell-based; details: MKN-45/Ubc-luc specificity control, 24 hrs
How it was run: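 MKN-45 cells stably carrying a ubiquitin C promoter–firefly luciferase construct, treated the day after seeding with eleven 2-fold compound dilutions (0.1% DMSO final) for 24 hrs at 37° C. Luminescence read 5 min after Steady Glo addition; cell-free background subtracted, as a control for nonspecific luciferase inhibition.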

[6] = system: SF268-MCAT_Luc_dox-i-shYAPLevy (Clone 13) cells; experiment: Proliferation assay (resazurin/AlamarBlue), SF268; type: cell-based; details: SF268, 72 hours
[7] = system: NCI-H2052 Tet-On shYAP_2371 pLenti6 MCAT_Luc cells; experiment: Proliferation assay (resazurin/AlamarBlue), NCI-H2052; type: cell-based; details: NCI-H2052, 72 hours
MKN-45/Ubc-luc cells = experiment: Proliferation assay (resazurin/AlamarBlue), MKN-45; type: cell-based; details: MKN-45, 72 hours
How it was run: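 MKN-45 cells carrying constitutive Ubc-driven luciferase reporter, treated the day after seeding with eleven 2-fold dilutions (0.1% DMSO) for 72 h at 37 °C. Viability by resazurin, referenced to day-0 plate; GI50 from % growth (100 none, 0 stasis, −100 kill) and residual viability at top concentration.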

Chain of Avi-humanTEAD4^217-434 / Cy5 labeled humanYAP^60-100 (Q15561 217-434): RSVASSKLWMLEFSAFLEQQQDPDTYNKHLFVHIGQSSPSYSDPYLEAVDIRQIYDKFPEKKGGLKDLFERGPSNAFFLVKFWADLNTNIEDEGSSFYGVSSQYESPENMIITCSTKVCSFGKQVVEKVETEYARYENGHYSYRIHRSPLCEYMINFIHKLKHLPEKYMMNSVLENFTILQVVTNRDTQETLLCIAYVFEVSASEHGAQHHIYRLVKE
Chain of TEAD1-GFP in HEK293A cells (P28347 whole entry): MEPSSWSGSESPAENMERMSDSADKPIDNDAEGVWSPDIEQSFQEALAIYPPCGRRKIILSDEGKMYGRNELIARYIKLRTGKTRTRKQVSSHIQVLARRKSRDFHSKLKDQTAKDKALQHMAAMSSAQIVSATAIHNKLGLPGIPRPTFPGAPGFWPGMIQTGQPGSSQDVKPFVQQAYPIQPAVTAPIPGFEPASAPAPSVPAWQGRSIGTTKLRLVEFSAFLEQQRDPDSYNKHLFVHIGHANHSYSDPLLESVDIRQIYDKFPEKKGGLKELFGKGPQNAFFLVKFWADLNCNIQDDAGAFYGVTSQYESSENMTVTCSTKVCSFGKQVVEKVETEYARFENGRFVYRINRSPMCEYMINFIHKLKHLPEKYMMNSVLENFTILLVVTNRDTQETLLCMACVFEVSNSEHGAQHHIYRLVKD

| Compound | DC50 [1] | IC50 ([2]; Homo sapiens) | IC50 ([3]; Homo sapiens, SF-268) | IC50 [4] | IC50 ([5]; Homo sapiens) | GI50 ([6]; Homo sapiens, SF-268) | GI50 ([7]; Homo sapiens) | GI50 (MKN-45/Ubc-luc cells; Homo sapiens) | IC50 [2] | IC50 [3] | IC50 [5] | GI50 [6] | GI50 [7] | GI50 (MKN-45/Ubc-luc cells) |
| --- | --- | --- | --- | --- | --- | --- | --- | --- | --- | --- | --- | --- | --- | --- |
| COc1ccc(C(N)=O)c(-c2c(Cl)c(F)cc3c2[C@H](C)[C@@](CN[C@H]2CC[C@H](C(=O)NCCCCCc4cccc5c4CN(C4CCC(=O)NC4=O)C5=O)CC2)(c2ccccc2)O3)c1F (stereo partly drawn) [Example 31, 2-((2S,3S,4S)-5-chloro-2-((((1r,4S)-4-((5-(2-(2,6-dioxopiperidin-3-yl)-1-oxoisoindolin-4-yl)pentyl)carbamoyl)cyclohexyl)amino)methyl)-6-fluoro-3-methyl-2-phenyl-2,3-dihydrobenzofuran-4-yl)-3-fluoro-4-methoxybenzamide] | 0.6 nM | 1.9 nM | 0.28 nM | 1.8 nM | > 20 µM | 19 nM | 6.6 nM | > 20 µM | – | – | – | – | – | – |
| N-(4-(1-((1S,4r)-4-((((2S,3S,4S)-4-(6-carbamoyl-2-fluoro-3-methoxyphenyl)-5-chloro-6-fluoro-3-methyl-2-phenyl-2,3-dihydrobenzofuran-2-yl)methyl)amino)cyclohexane-1-carbonyl)piperidin-4-yl)butyl)-3-(2,4-dioxotetrahydropyrimidin-1(2H)-yl)-4-methoxybenzamide [Example 18] | 2 nM | – | – | 3.9 nM | – | – | – | – | 9.9 nM | 1.3 nM | > 2 µM | 60 nM | 27 nM | > 2 µM |
